Assay results as given in US11629174B2, “Cryptic metabolites and method for activating silent biosynthetic gene clusters in actinomycete bacteria” (The Trustees of Princeton University, priority 2017, dated 2023).
Read-outs that look alike come from different tables or passages of the source. Square brackets hold non-standard residues; d marks the D form. Peptide text beside a SMILES is read from it. * marks the point of attachment. ξ: configuration not given here. dIle(3ξ) = CCC(C)[C@@H](N)C(=O)O; Ile(3ξ) = CCC(C)[C@H](N)C(=O)O; ξK = NCCCCC(N)C(=O)O; Butyryl = CCCC(=O)*

Legend:
Gene cluster 2631 = assay: HiTES in S. erythraea, gene cluster 2631; format: cell-based; details: FIG. 10
Gene cluster 3648 = assay: HiTES in S. avermitilis, gene cluster 3648; format: cell-based; details: FIGS. 16 and 17
Gene cluster 4143 = assay: HiTES in S. erythraea, gene cluster 4143; format: cell-based; details: FIG. 12
Gene cluster 4477 = assay: HiTES in S. erythraea, gene cluster 4477; format: cell-based; details: FIG. 14
Gene cluster 4286 = assay: HiTES in S. erythraea, gene cluster 4286; format: cell-based; details: FIG. 13
S. cerevisiae = assay: Antifungal microtiter assay; format: cell-based; details: Saccharomyces cerevisiae, 40 h, OD600
Description: Bacillus subtilis 168, E. coli K 12, Pseudomonas aeruginosa PAO1, Enterococcus faecalis OG1RF, Staphylococcus aureus Newman, Saccharomyces cerevisiae and Saccharomyces pombe were used for antibiotic assays. B. subtilis (30° C.), E. coli (37° C.), P. aeruginosa (30° C.), and E. faecalis (37° C.) were cultured in LB medium at the temperatures indicated. S. aureus was cultured in Brain-Heart-Infusion (BHI) medium at 37° C. S. cerevisiae and S. pombe were grown at 25° C. in YPM medium (0.5% yeast extract, 0.3% peptone, 2.5% mannitol), and YES medium (0.5% yeast extract, 3% glucose, 225 mg/L leucine, 225 mg/L histidine, 225 mg/L adenine, 225 mg/L uracil), respectively. The assays were carried out in accordance with the 2003 guidelines of the Clinical and Laboratory Standards Institute (CLSI) using the microtiter method. Briefly, microbial seed cultures were initiated by inoculating 3 mL of the indicated medium each strain and by growing these overnight at the indicated temperatures. Each culture was then diluted to an initial OD600 nm of 0.02 in 100 μL volume per well in a 96-well plate, which gave an inoculum of ˜5×10^5 to 5×10^6 cells. […] The plates were then incubated at the temperatures listed above without shaking and OD600 nm determined after 16 h (bacteria) or 40 h (yeast). […]

[1] = test system: 36 diverse cancer cell lines; details: cited from earlier work
sur cluster = assay: High-throughput elicitor screen (HiTES), eGFPx3 reporter strains of the sur cluster; format: cell-based, Streptomyces albus J1074; details: attB::Psur-eGFPx3 and surE::eGFPx3, ~33 μM, 60 h, hit threshold 2.5-fold eGFP fluorescence
Description: These next four steps are seen be referring to the previously described example. In the previously described example, HiTES was carried out using the two constructs seen in FIGS. 2B and 2C with a ˜500-member natural products library. Each S. albus construct was grown in a 96-well format, supplemented with the compound library, and the effect of each compound on the silent BGC determined using eGFP-derived fluorescence. Interference from naturally fluorescent compounds in the library was eliminated by subtracting the […], immediately after addition of the library members.
Referring to FIGS. 3A and 3B, results for both genetic constructs are shown. These graphs show relative expression of a neutral site reporter, attB::Psur-eGFPx3 (FIG. 3A) or targeted sur reporter, surE::eGFPx3 (FIG. 3B) as a function of exogenously-supplied small molecules. Each bar represents the level of expression of sur in the presence of a single candidate elicitor. Plus signs denote the positive control, attB::PermE-eGFPx3. Minus signs denote the negative controls, attB::Psur-eGFPx3 (3A) or surE::eGFPx3 (3B) in the absence of any metabolites. The expression has been normalized to the positive control.
In this example, the threshold amount was a 2.5 fold induction of eGFP-derived fluorescence emission. Thus, hits were considered those that gave at least a 2.5-fold induction of eGFP-derived fluorescence emission. However, in other embodiments, hits may be those giving at least a 2 fold induction, more preferably at least a 3 fold induction, and more preferably at least a 4 fold induction.
Seed cultures for the reporter strains sur::eGFPx3, attB::Psur-eGFPx3, negative control wild-type, and positive control attB::PermE-eGFPx3 inoculated by transferring fresh spores (˜10^7) into 20 mL of YEME medium (per L: 3% (w/v) yeast extract, 5% peptone, 3% malt extract, 1% glucose and 10.7% sucrose, and 5 mM MgCl2.6H2O) in a 125 mL Erlenmeyer flask equipped with stain-less steel springs. The cultures were grown at 30° C. and 250 rpm for 3 days. Mycelia from each of the four cultures were collected by centrifugation (10 min, 3000 g, RT) and diluted into 150 mL of R4 medium to give a final concentration of 0.05% (w/v). R4 medium consisted of (per L) 0.5% (w/v) glucose, 0.1% yeast extract, 0.5% MgCl2.6H2O, 0.2% CaCl2.2H2O, 0.15% proline, 0.118% valine, 0.28% TES, 50 mg/L casamino acid, 100 mg/L K2SO4, and 1× trace element solution, which contains 40 mg/L ZnCl2, 200 mg/L FeCl3.6H2O, 10 mg/L CuCl2.2H2O, 10 mg/L MnCl2.4H2O, 10 mg/L Na2B4O7.10H2O, and 10 mg/L (NH4)6Mo7O24.4H2O).
Subsequently, the two reporter strains (sur::eGFPx3 and attB::Psur-eGFPx3) were each dispensed into 5× sterile, clear-bottom 96-well plates (150 μL per well) using a MultiFlo Microplate Dispenser (BioTek). A separate sterile 96-well separate plate was prepared for positive and negative controls; it contained the negative control (wt S. albus J1074) in columns 1-3, sur::eGFPx3 in columns 4-6, attB::Psur-eGFPx3 in columns 7-9, and the positive control attB::PermE-eGFPx3 in columns 10-12 of the plate. No elicitors were added to the control plates. […] Upon additional of the compound library, t=0 fluorescence reads were recorded on a Synergy H1MF plate reader (BioTek) using Aex=485 nm and Aem=505-650 nm in 5 nm steps. […]

surA and surC = assay: RT-qPCR of surA and surC transcripts in wt S. albus; format: cell-based, Streptomyces albus J1074; details: for induction of surA and surC: mRNA vs DMSO control, wt S. albus
Description: In the example above, the effects of these putative elicitors on the sur cluster were validated by performing a RT-qPCR with wt S. albus. Upon exposure of S. albus to each elicitor or DMSO (control), total RNA was be isolated, converted to cDNA and the surA and surC transcripts quantified by qPCR. […] To further verify the effect of 1 and 2, a dose-response assay was carried out. With both elicitors, a concentration-dependent induction of sur was observed, yielding optimal upregulation at a final concentration of ˜23 μM (etoposide) and −30 μM (ivermectin) (FIG. 4B). These concentrations induced a ˜10-fold (etoposide) and 4.5-fold (ivermectin) upregulation of surC.
All operations involving RNA utilized a dedicated RNase-free work area. To commence the experiment, seed cultures of wt S. albus J1074 were prepared by inoculating 3 ml of TSBY medium (3% (w/v) tryptic soy broth and 0.5% yeast extract) in a sterile 14 ml bacterial culture tube with freshly-prepared spores (˜10^7). The culture was incubated at 30° C. and 250 rpm in an Ecotron Shaker (ATR). After 48 hours cultivation, the cells were collected by centrifugation and subsequently diluted to a final concentration of 0.05% (w/v) in 250 ml Erlenmeyer flask containing 50 ml of R4 medium. Desired elicitors were added to final concentrations indicated in the figures (typically 1-100 μM), and the cultures were incubated at 30° C. and 250 rpm. After 48 h, 1 ml was removed from each sample and transferred to a 1.5 ml RNase-free Eppendorf tube (Ambion). Each sample was centrifuged (16,000 g, 3 min) to collect the cells, the supernatant discarded, the cells flash-frozen in liquid N2, and stored at −80° C.
RNA isolation was carried out using the Qiagen RNeasy kit following the manufacturer's instructions without modifications. Upon isolation, contaminating DNA was removed using the DNA-free kit (Ambion) according to manufacturer's instructions. Gel electrophoreses subsequently confirmed RNA integrity (FIG. S2). Finally, total RNA was converted into cDNA via the PrimeScript™ RT reagent Kit (Takara) using random hexamers as primers and 500 ng of each RNA sample as template.
Three genes (surA, surC and surR) were chosen for quantification by RT-qPCR. The primers were designed using primer-3-plus software available online. The primers were carefully chosen to give an amplicon length of 130-160 bp and a melting temperature of 60° C., though this was later optimized (see below and Table 2). The primers were chosen to vary in length between 18-22 bp, and, if possible, to contain a single G/C clamp at the 3′ end. To ensure optimal qPCR parameters, the genomic DNA of S. albus J1074 was isolated using the Wizard genomic DNA purification kit (Promega), and each amplicon was subsequently amplified using standard PCR conditions with a high-fidelity, proof-reading Q5 DNA polymerase (NEB). The PCR reactions were then separated on a 1.2% agarose gel, the amplicon excised, and gel-extracted with the Gel Extraction kit (Qiagen). The extracted DNA was used to optimize qPCR conditions. Using the amplicon template, the primer concentrations were first varied followed by the annealing/extension temperatures, which ranged from 58-68° C. in eight steps. The combination that gave the lowest quantification cycle (Cq) was used in the experiments (Table 2). The Cq was obtained with an automatic baseline determined by the CFX Manager Software (Bio-Rad). As positive controls, these standards were included in every plate that contained the experimental samples, along with no-DNA controls, in duplicates.
qPCR analysis was performed on a CFX96 Real-Time PCR Detection System (Bio-Rad) consisting of a C1000 Thermal Cycler and a CFX96 Real-Time System. The reaction was carried out in hard-shell, clear 96-well qPCR plates (Bio-Rad) and utilized the iTaq Universal SYBR Green Supermix (Bio-Rad). […]

cathepsin B = molecular target: T1, cathepsin B (Homo sapiens, UniProt P07858); assay: Cathepsin B inhibition assay (fluorescence kit); format: biochemical
T1 construct: purchased Sigma-Aldrich
Description: Cathepsin B inhibition assays were carried as previously reported using the Cathepsin B Inhibition assay kit (Sigma-Aldrich). The fluorescence-based assays was conducted in a final volume of 50 μL according to manufacturer instructions. Fluorescence emission was determined in a microtiter plate in kinetic mode (1 read per minute for 1 h) using a BioTek H1MF plate reader and Aex˜400/Acm˜505 nm. IC50 values were subsequently calculated according to instructions.

For `COc1c2ccoc2cc2oc(=O)ccc12` [Bergapten], the “elicitor of gene cluster 2631 (ranking)” value (Gene cluster 2631) was “top three elicitors”.
With `COc1cc(CNC(=O)CCCC/C=C/C(C)C)ccc1O` [Capsacin] the “elicitor of gene cluster 3648 (ranking)” value (Gene cluster 3648) was “top four elicitors”.
In the case of `OCc1c[nH]c2ccccc12` [Indole-3-carbinol], the “elicitor of gene cluster 4143 (ranking)” value (Gene cluster 4143) is reported as “top three elicitors” and the “elicitor of gene cluster 4477 (ranking)” value (Gene cluster 4477) is reported as “top three elicitors”.
In the case of `CC#C[C@]1(O)CC[C@H]2[C@@H]3CCC4=CC(=O)CCC4=C3[C@@H](c3ccc(N(C)C)cc3)C[C@@]21C` [Mifepristone], the “elicitor of gene cluster 3648 (ranking)” value (Gene cluster 3648) is reported as “top four elicitors”.
In the case of `CC[C@H](C)/C=C(C)/C=C/C1=CC2=C(Cl)C(=O)[C@](C)(OC(C)=O)C(=O)C2=CO1` [Sclerotiorin], the “elicitor of gene cluster 4286 (ranking)” value (Gene cluster 4286) is reported as “top three elicitors”.
For `CCCC(=O)NCCCCC1NC(=O)[C@@H](C(C)CC)NC(=O)[C@H](C(C)CC)NC(=O)[C@@H](C)NC(=O)[C@H](C(C)CC)NC(=O)[C@@H](CC(C)C)NC(=O)[C@@H](Cc2ccccc2)NC(=O)[C@H](C(C)CC)NC1=O` (stereo partly drawn) [acylsurugamide A] (cyclo([Ile(3ξ)][dA][Ile(3ξ)][dIle(3ξ)][ξK](Butyryl)[Ile(3ξ)][dF][dL])), the IC50 (S. cerevisiae) was 3.5 µM.
For `CNC1=CC(=O)c2cc(C)ncc2C1=O` [compound 25, 3-methyl-7-methylamino-5,8-isoquinolinedione], the IC50 ([1]; read-out: IC50s (range over panel)) is listed as 0.2 to 50 µM and the IC50 ([1]; read-out: mean IC50) is listed as 3.5 µM.
For `CC(C)[C@@]1(NC(=O)[C@@H]2C[C@@H]3c4cccc5[nH]cc(c45)C[C@H]3N(C)C2)O[C@@]2(O)[C@@H]3CCCN3C(=O)[C@H](Cc3ccccc3)N2C1=O` [dihydroergocristine], the “induction of the sur cluster in both reporter strains (hit ranking)” value (“induction of the sur cluster” below) (sur cluster) was “best hits” and the “induction of surA and surC” value (surA and surC) was 3 fold.
For `Oc1cc(O)cc(/C=C/c2ccc(O)c(O)c2)c1` [piceattanol], the “induction of the sur cluster” value (sur cluster) was “best hits”.
`CC(C)C[C@H]1NC(=O)[C@@H](Cc2ccccc2)NC(=O)[C@H](C(C)C)NC(=O)[C@H](CCCCN)NC(=O)[C@@H](C(C)C)NC(=O)[C@H](C(C)C)NC(=O)[C@@H](C)NC(=O)[C@H](C(C)C)NC1=O` [surugamide I] (cyclo(KV[dF][dL]V[dA]V[dV])) showed an IC50 (cathepsin B) of 9 µM.
With bromolaudanosine the “induction of the sur cluster” value (sur cluster) was “best hits”.
For ivermectin, the “induction of the sur cluster” value (sur cluster) was “best hits”, the “upregulation of surC” value (surA and surC; at the optimal elicitor concentration, vs DMSO) was 4.5 fold and the “induction of surA and surC” value (surA and surC) was 3 fold. The “elicitor of gene cluster 4143 (ranking)” value (Gene cluster 4143) was “top three elicitors”.
